Assays:
[1] = Pig performance post weaning with LAM and FUC, Example 4; format: in vivo
From the text: One hundred and ninety two piglets were weaned at twenty four days of age, with an initial live weight of 6.4±0.785 Kg and assigned to one of four dietary treatments or 21 days post weaning. The dietary treatments consisted of (T1) basal diet, (T2) basal diet with 300 ppm LAM, (T3) basal diet with 236 ppm FUC, (T4) Basal diet with 300 ppm LAM and 236 ppm FUC. Diets were formulated to have identical concentrations of digestible energy (DE) (16 MJ/Kg) and ileal digestible lysine (14 g/Kg). All amino acid requirements were met relative to lysine (Close, 1994). Chromium III oxide was added to the diets for determination of nutrient digestibility. The LAM and FUC were derived from Laminaria hyperborea.
Piglets were housed in groups of 4 and offered feed twice daily. Water was supplied ad-libitum. Any pig displaying symptoms of illness was treated appropriately and recorded. Pigs were weighed on day 0 (day of weaning), 7, 14 and 21. Feed intake was monitored weekly. Fresh faecal samples were taken on day 10 and were analysed for E. coli and Lactobacilli concentrations. Faeces samples were collected from each pen on day 12-17 and were retained for chemical analysis. Fresh faecal samples were removed on day 14 and were frozen and retained for volatile fatty acid analysis. Fresh faecal samples were taken on day 17 for pH determination.

Bifidobacteria = assay: Microbial analysis of ileum and colon digesta, Example 5; format: in vivo, pig; conditions: ileum; LAM 0-600 ppm
From the text: (§1) 21 pigs with an initial weight of 17.9±2.2 Kg were assigned to one of the 3 dietary treatments: (T1) control; (T2) basal diet+300 ppm LAM; (T3) basal diet+600 ppm LAM. Experimental feeding continued for 21 days ad libitum. Diets were formulated to have similar digestible energy (DE) (14.4 MJ/Kg) and ileal digestible lysine (12.5 g/Kg). Post-slaughter, digestive tract was removed by dissection and digesta was removed from the ileum. Each digesta sample was serially diluted in maximum recovery diluent (MRD, Oxoid, Basingstoke, UK), and spread plated onto selective agars. Bifidobacteria, Lactobacilli and Enterobacteria species were isolated according to the methods described by Pierce et al. (2005). Digesta samples used to measure VFA concentration were collected from the caecum and the same location in the ileum and colon. VFA analysis was performed using gas liquid chromatography (GLC) according to the method described by Pierce et al., (2005).

Enterobacteriaceae = assay: as above; format: in vivo, pig
From the text: as §1

Lactobacilli = assay: as above; format: in vivo, pig; conditions: ileum; LAM 0-600 ppm
From the text: as §1

laminarin
Gain: Feed ratio ([1]; days 7-14, LAM supplemented diets (300 ppm) v unsupplemented (0.569)): 0.763
ADG ([1]; days 7-14 post weaning, LAM supplemented diets (300 ppm) v diets with no LAM (0.266)): 0.344
ADG ([1]; entire experimental period, LAM supplemented diets (300 ppm) v no LAM (0.232)): 0.324
Gain: Feed ratio ([1]; entire experimental period, LAM supplemented diets (300 ppm) v unsupplemented (0.646)): 0.703
average daily feed intake ([1]; weaned pigs, 21 days, LAM 300 ppm, FUC 236 ppm): no effect
Bifidobacteria populations (Bifidobacteria): no effect
Enterobacteriaceae (Enterobacteriaceae; colon, LAM from Laminaria digitata, 300 and 600 ppm): decrease
Enterobacteriaceae populations (Enterobacteriaceae; ileum, LAM 0-600 ppm): no effect
Lactobacilli populations (Lactobacilli): no effect

From patent US9241951B2, “Of gastrointestinal health, immunity and performance by dietary intervention” (BIOATLANTIS LTD, priority 2009, dated 2016)
